The results in this text go back to article PMC5039424 (2016).

One may read the Ki as the dissociation constant of the complex between target and ligand, obtained from inhibition or displacement.

The assay concerns yeast tRNA^Phe (RNA, tRNA) GCGGAUUUAGCUCAGUUGGGAGAGCGCCAGACUGAAGAUCUGGAGGUCCUGUGUUCGAUCCACAGAAUUCGCACCA
The assay is described as follows: inhibition of lead(II)-induced cleavage, gel. To be noted: 10 mM Mg2+, 1 mM NH4+, 0.5 mM Pb2+; 50% inhibition of Pb2+ cleavage; 50 mM Tris-HCl pH 7.5; RNA 2.4 μM.
The compound `CN(C)c1ccc2cc3ccc(N(C)C)cc3[o+]c2c1` yielded a Ki of 166 ± 42 µM.

For `CN(C)c1ccc2nc3ccc(N(C)C)cc3[s+]c2c1`, the Ki was determined as 98 ± 20 µM.

Compound `CN(C)c1ccc2nc3ccc(N)cc3[s+]c2c1` had an inhibitory constant (Ki) of 52 ± 8.3 µM.

Take `CNc1ccc2nc3ccc(=[N+](C)C)cc-3sc2c1`: the inhibitory constant (Ki) was found to be 58 ± 28 µM.
